Measurements: PubChem BioAssay (NCI)
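How tested: cells in 96-well plates exposed to compound for 48 hours at five concentrations. TGI denotes the concentration required for complete inhibition of growth.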

Key:
Assay in all cases: growth of human tumour cells (NCI), 48 h
[1] = system: CCRF-CEM leukemia
[2] = system: 786-0 renal
[3] = system: SK-MEL-2 melanoma
[4] = system: ACHN renal
[5] = system: DMS 273 small cell lung
[6] = system: SW-620 colon
[7] = system: SNB-78 CNS
[8] = system: SK-MEL-5 melanoma
[9] = system: LOX IMVI melanoma
[10] = system: M14 melanoma
[11] = system: HL-60(TB) leukemia
[12] = system: MALME-3M melanoma
[13] = system: MOLT-4 leukemia
[14] = system: RXF 393 renal
[15] = system: SF-268 CNS
[16] = system: UO-31 renal
[17] = system: HOP-92 NSCLC
[18] = system: LXFL 529 NSCLC
[19] = system: KM12 colon
[20] = system: HT29 colon
[21] = system: OVCAR-5 ovarian
[22] = system: HOP-18 NSCLC
[23] = system: A498 renal
[24] = system: HCC-2998 colon
[25] = system: EKVX NSCLC
[26] = system: M19-MEL melanoma
[27] = system: NCI-H460 lung
[28] = system: NCI-H226 lung
[29] = system: HCT-15 colon
[30] = system: OVCAR-4 ovarian
[31] = system: SNB-19 CNS
[32] = system: DLD-1 colon
[33] = system: DMS 114 small cell lung
[34] = system: OVCAR-3 ovarian
[35] = system: KM20L2 colon
[36] = system: SK-MEL-28 melanoma
[37] = system: CAKI-1 renal
[38] = system: SNB-75 CNS
[39] = system: SF-539 CNS
[40] = system: A549 NSCLC
[41] = system: SN12C renal
[42] = system: UACC-257 melanoma
[43] = system: OVCAR-8 ovarian
[44] = system: K-562 leukemia
[45] = system: XF 498 CNS
[46] = system: HCT-116 colon
[47] = system: IGROV1 ovarian
[48] = system: COLO 205 colon
[49] = system: HOP-62 NSCLC
[50] = system: U251 CNS
[51] = system: SF-295 CNS
[52] = system: SK-OV-3 ovarian
[53] = system: TK-10 renal
[54] = system: UACC-62 melanoma
[55] = system: NCI-H23 lung
[56] = system: RPMI-8226 leukemia
[57] = system: NCI-H522 lung
[58] = system: SR leukemia
[59] = system: RXF-631 renal

Structure (SMILES): O=C(NNc1ccc([N+](=O)[O-])cc1)C1OC(CO)C(O)C1O (centres undefined)
- TGI [1]: > 100 µM
- TGI [2]: > 100 µM
- TGI [3]: > 100 µM
- TGI [4]: > 100 µM
- TGI [5]: > 100 µM
- TGI [6]: 71.3 µM
- TGI [7]: > 100 µM
- TGI [8]: > 100 µM
- TGI [9]: > 100 µM
- TGI [10]: > 100 µM
- TGI [11]: > 100 µM
- TGI [12]: > 100 µM
- TGI [13]: > 100 µM
- TGI [14]: > 100 µM
- TGI [15]: > 100 µM
- TGI [16]: > 100 µM
- TGI [17]: > 100 µM
- TGI [18]: > 100 µM
- TGI [19]: > 100 µM
- TGI [20]: > 100 µM
- TGI [21]: > 100 µM
- TGI [22]: > 100 µM
- TGI [23]: > 100 µM
- TGI [24]: > 100 µM
- TGI [25]: > 100 µM
- TGI [26]: > 100 µM
- TGI [27]: > 100 µM
- TGI [28]: > 100 µM
- TGI [29]: > 100 µM
- TGI [30]: > 100 µM
- TGI [31]: > 100 µM
- TGI [32]: > 100 µM
- TGI [33]: > 100 µM
- TGI [34]: > 100 µM
- TGI [35]: > 100 µM
- TGI [36]: > 100 µM
- TGI [37]: > 100 µM
- TGI [38]: > 100 µM
- TGI [39]: > 100 µM
- TGI [40]: > 100 µM
- TGI [41]: > 100 µM
- TGI [42]: > 100 µM
- TGI [43]: > 100 µM
- TGI [44]: > 100 µM
- TGI [45]: > 100 µM
- TGI [46]: > 100 µM
- TGI [47]: > 100 µM
- TGI [48]: > 100 µM
- TGI [49]: > 100 µM
- TGI [50]: > 100 µM
- TGI [51]: > 100 µM
- TGI [52]: > 100 µM
- TGI [53]: > 100 µM
- TGI [54]: > 100 µM
- TGI [55]: > 100 µM
- TGI [56]: > 100 µM

Structure (SMILES): Clc1cccc(C2SCc3nc4ccccc4n32)c1Cl (centres undefined)
- TGI [1]: 48.2 µM
- TGI [2]: 32.8 µM
- TGI [3]: 32.2 µM
- TGI [4]: 35.3 µM
- TGI [5]: 32.1 µM
- TGI [6]: 30.8 µM
- TGI [7]: 55.6 µM
- TGI [8]: 27.3 µM
- TGI [10]: 30.5 µM
- TGI [11]: 20.3 µM
- TGI [57]: 32.1 µM
- TGI [13]: 41.9 µM
- TGI [14]: 29.6 µM
- TGI [15]: 36.5 µM
- TGI [16]: 25.8 µM
- TGI [17]: 30.1 µM
- TGI [18]: 30.3 µM
- TGI [20]: 27.5 µM
- TGI [21]: 27.1 µM
- TGI [22]: 33.1 µM
- TGI [23]: 29.2 µM
- TGI [25]: 30.8 µM
- TGI [26]: 29.6 µM
- TGI [27]: 34.6 µM
- TGI [29]: 36.5 µM
- TGI [30]: 27 µM
- TGI [31]: 33.1 µM
- TGI [32]: 32.4 µM
- TGI [33]: 36.4 µM
- TGI [34]: 33.7 µM
- TGI [35]: 34.7 µM
- TGI [36]: 35.9 µM
- TGI [37]: 34.1 µM
- TGI [38]: 18.6 µM
- TGI [39]: 32.5 µM
- TGI [40]: 41.9 µM
- TGI [41]: 32.5 µM
- TGI [42]: 28.5 µM
- TGI [43]: 37 µM
- TGI [44]: 45 µM
- TGI [45]: 29.9 µM
- TGI [46]: 33.5 µM
- TGI [47]: 33.6 µM
- TGI [48]: 36 µM
- TGI [49]: 32 µM
- TGI [50]: 31.7 µM
- TGI [51]: 30.4 µM
- TGI [52]: 34.9 µM
- TGI [53]: 29.2 µM
- TGI [54]: 34.3 µM
- TGI [55]: 32.1 µM
- TGI [56]: 90.6 µM

Structure (SMILES): O=C1CCCC2COc3ccc(O)c1c32 (centres undefined)
- TGI [1]: > 100 µM
- TGI [2]: > 100 µM
- TGI [3]: > 100 µM
- TGI [4]: > 100 µM
- TGI [5]: > 100 µM
- TGI [7]: > 100 µM
- TGI [8]: > 100 µM
- TGI [10]: > 100 µM
- TGI [58]: > 100 µM
- TGI [11]: > 100 µM
- TGI [12]: > 100 µM
- TGI [57]: > 100 µM
- TGI [13]: > 100 µM
- TGI [14]: > 100 µM
- TGI [15]: > 100 µM
- TGI [16]: > 100 µM
- TGI [17]: > 100 µM
- TGI [19]: > 100 µM
- TGI [20]: > 100 µM
- TGI [21]: > 100 µM
- TGI [23]: > 100 µM
- TGI [24]: > 100 µM
- TGI [25]: > 100 µM
- TGI [26]: > 100 µM
- TGI [27]: > 100 µM
- TGI [28]: > 100 µM
- TGI [29]: > 100 µM
- TGI [30]: > 100 µM
- TGI [31]: > 100 µM
- TGI [32]: > 100 µM
- TGI [33]: > 100 µM
- TGI [34]: > 100 µM
- TGI [35]: > 100 µM
- TGI [36]: > 100 µM
- TGI [38]: > 100 µM
- TGI [39]: > 100 µM
- TGI [40]: > 100 µM
- TGI [41]: > 100 µM
- TGI [42]: > 100 µM
- TGI [43]: > 100 µM
- TGI [44]: > 100 µM
- TGI [47]: > 100 µM
- TGI [48]: > 100 µM
- TGI [49]: > 100 µM
- TGI [50]: > 100 µM
- TGI [51]: > 100 µM
- TGI [52]: > 100 µM
- TGI [53]: > 100 µM
- TGI [54]: > 100 µM
- TGI [55]: > 100 µM
- TGI [59]: > 100 µM
- TGI [56]: > 100 µM

Structure (SMILES): O=C1C=Cc2noc3cccc1c23
- TGI [1]: 5.35 µM
- TGI [2]: 20.7 µM
- TGI [3]: 21.2 µM
- TGI [4]: 7.85 µM
- TGI [5]: 20.4 µM
- TGI [6]: 16.2 µM
- TGI [7]: 12 µM
- TGI [8]: 24.2 µM
- TGI [9]: 9.51 µM
- TGI [10]: 23.2 µM
- TGI [11]: 3.67 µM
- TGI [12]: 25.7 µM
- TGI [57]: 3.04 µM
- TGI [13]: > 100 µM
- TGI [14]: 5.67 µM
- TGI [15]: 12.4 µM
- TGI [16]: 15.3 µM
- TGI [17]: 5.22 µM
- TGI [18]: 4.9 µM
- TGI [19]: 19.1 µM
- TGI [20]: 79.7 µM
- TGI [21]: 28.4 µM
- TGI [22]: 33.6 µM
- TGI [23]: 27.5 µM
- TGI [24]: 28.6 µM
- TGI [25]: 10.2 µM
- TGI [26]: 11.2 µM
- TGI [28]: 35.1 µM
- TGI [29]: 10.8 µM
- TGI [30]: 4.82 µM
- TGI [31]: 31.3 µM
- TGI [32]: 3.13 µM
- TGI [33]: 4.99 µM
- TGI [34]: 10.9 µM
- TGI [35]: 34 µM
- TGI [36]: 17.6 µM
- TGI [37]: 25.4 µM
- TGI [38]: 25.8 µM
- TGI [39]: 30.2 µM
- TGI [40]: 38.7 µM
- TGI [41]: 27.3 µM
- TGI [42]: 26.4 µM
- TGI [43]: 8.13 µM
- TGI [44]: 9.65 µM
- TGI [46]: 4.47 µM
- TGI [47]: 29.4 µM
- TGI [48]: 34 µM
- TGI [50]: 26.4 µM
- TGI [51]: 32.8 µM
- TGI [52]: 32.1 µM
- TGI [53]: 32.3 µM
- TGI [54]: 13.4 µM
- TGI [55]: 26 µM
- TGI [59]: 27.9 µM
